According to US8183238B2, “Bicyclic and tricyclic compounds as KAT II inhibitors” (priority 2009, dated 2012):
Counter-ions that a name gives are not always drawn. Like-named read-outs stand apart in the source and are kept apart here.

Target: human KAT II (hKAT II) enzyme (Homo sapiens, UniProt Q8N5Z0)
Assay: KAT II Inhibition Spectra Assay
Type: biochemical
Description: Formation of kynurenic acid (KYNA) is indirectly assessed by a decrease in light absorbance at 370 nm (OD370) as the L-kynurenine (KYN) substrate is converted by the human KAT II (hKAT II) enzyme into KYNA. An inhibitor would therefore inhibit the decrease in OD370.
The protocol was performed by placing the following reagents into a Costar 384 well black plate (30 μL total assay volume/well): • 10 μL of 3× concentrated compound; • 10 μL of 3× concentrated substrate mix (BGG (Sigma G-5009); 3 mM L-Kynurenine in 150 mM Tris Acetate (Sigma K3750); 3 mM α-ketoglutaric acid in 150 mM Tris Acetate (Sigma K2010); and 210 μM pyridoxal 5-phosphate (PLP) in 150 mM Tris Acetate (Sigma 9255)); and • 10 μL of 3× concentrated enzyme (15 nM enzyme in 150 mM Tris Acetate with 0.3% bovine serum).
Plates were sealed and incubated at 37° C. for 15-20 h before reading OD370 on a SpectraMax Plus plate reader. IC50s were generated by comparing the efficacy of compounds across a concentration range to inhibit a reduction in the OD370 value relative to assay wells with DMSO added in place of concentrated compound.

[1] = Table 6, hKAT II, decrease in OD370, 37° C., 15-20 h, read-out: KATII IC50
[2] = Table 5, hKAT II, decrease in OD370, 37° C., 15-20 h, read-out: KATII IC50

human KAT II (hKAT II) enzyme, sequence (Q8N5Z0 30-425): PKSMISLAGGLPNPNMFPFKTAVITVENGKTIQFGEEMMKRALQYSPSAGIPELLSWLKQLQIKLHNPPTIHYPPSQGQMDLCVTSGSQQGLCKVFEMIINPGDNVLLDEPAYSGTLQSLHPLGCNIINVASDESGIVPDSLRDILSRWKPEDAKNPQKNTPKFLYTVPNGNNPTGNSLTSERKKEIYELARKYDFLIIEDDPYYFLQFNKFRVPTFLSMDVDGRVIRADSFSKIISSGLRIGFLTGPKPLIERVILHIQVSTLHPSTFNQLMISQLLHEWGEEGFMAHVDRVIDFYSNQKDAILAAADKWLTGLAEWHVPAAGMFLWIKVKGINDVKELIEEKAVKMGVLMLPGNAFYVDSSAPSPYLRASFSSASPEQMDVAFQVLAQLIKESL

Compound | IC50 [1] [nM] | IC50 [2] [nM] | also measured
CCc1cccc2c1N(O)C(=O)[C@@H](N)C2 [Example 110] | 983 | – | –
NC1Cc2cc(Oc3ccc(F)cc3F)ccc2N(O)C1=O (stereo not shown) [Example 85] | 39.9 | – | –
Cc1cccc(-c2ccc3c(c2)N(O)C(=O)C(N)C3)c1 (stereo not shown) [Example 63, 3-amino-1-hydroxy-7-(3-methylphenyl)-3,4-dihydroquinolin-2(1H)-one, trifluoroacetate salt] | – | 113 | –
N[C@H]1Cc2cc(-c3ccc(F)cc3F)ccc2N(O)C1=O [Example 147, (3S)-3-amino-6-(2,4-difluorophenyl)-1-hydroxy-3,4-dihydroquinolin-2(1H)-one, trifluoroacetate salt] | 75.6 | – | –
NC1Cc2ccc(-c3cc(Cl)ccc3F)cc2N(O)C1=O (stereo not shown) [Example 54, 3-amino-7-(5-chloro-2-fluorophenyl)-1-hydroxy-3,4-dihydroquinolin-2(1H)-one, trifluoroacetate salt] | – | 137 | –
N[C@H]1Cc2cc(Oc3ccc(F)c(F)c3)ccc2N(O)C1=O [Example 162, (3S)-3-amino-6-(3,4-difluorophenoxy)-1-hydroxy-3,4-dihydroquinolin-2(1H)-one, trifluoroacetate salt] | 46.7 | – | –
COc1ncccc1-c1ccc2c(c1)C[C@H](N)C(=O)N2O [Example 151, (3S)-3-amino-1-hydroxy-6-(2-methoxypyridin-3-yl)-3,4-dihydroquinolin-2(1H)-one, trifluoroacetate salt] | 63.6 | – | –
N[C@H]1Cc2cc(Oc3ccc(F)c(C(F)(F)F)c3)ccc2N(O)C1=O [Example 159, (3S)-3-amino-6-[4-fluoro-3-(trifluoromethyl)phenoxy]-1-hydroxy-3,4-dihydroquinolin-2(1H)-one, trifluoroacetate salt] | 109 | – | –
NC1Cc2cc(C3CC3)ccc2N(O)C1=O (stereo not shown) [Example 21] | – | 46.2 | –
N[C@@H]1Cc2ccc(Br)cc2N(O)C1=O [Example 5, (3R)-3-amino-7-bromo-1-hydroxy-3,4-dihydroquinolin-2(1H)-one] | – | 131 | –
C[C@H]1c2ccccc2N(O)C(=O)[C@H]1N [Example 7, (3S,4S)-3-amino-1-hydroxy-4-methyl-3,4-dihydroquinolin-2(1H)-one, hydrochloride salt] | – | 3280 | –
COc1cc2c(cc1Cc1cccc(C(F)(F)F)c1)C[C@H](N)C(=O)N2O [Example 83] | 39.7 | – | –
N[C@H]1Cc2cc(Cl)c(Cl)cc2N(O)C1=O [Example 115] | 52.7 | – | –
CC(C)Oc1ccc2c(c1)N(O)C(=O)[C@@H](N)C2 [Example 25] | – | 48.4 | –
NC1Cc2ncccc2N(O)C1=O (stereo not shown) [Example 9, 3-amino-1-hydroxy-3,4-dihydro-1,5-naphthyridin-2(1H)-one, dihydrochloride salt] | – | 2230 | –
N[C@H]1Cc2ccc(Br)cc2N(O)C1=O [Example 6, (3S)-3-amino-7-bromo-1-hydroxy-3,4-dihydroquinolin-2(1H)-one] | – | 25.4 | –
NC1Cc2cc(F)cc(Oc3ccccc3)c2N(O)C1=O (stereo not shown) [Example 86] | 65 | – | –
N#Cc1ccc(Oc2ccc3c(c2)C[C@H](N)C(=O)N3O)cc1C(F)(F)F [Example 164, 4-{[(3S)-3-amino-1-hydroxy-2-oxo-1,2,3,4-tetrahydroquinolin-6-yl]oxy}-2-(trifluoromethyl)benzonitrile, trifluoroacetate salt] | 42.2 | – | –
CN(C)C(=O)ON1C(=O)[C@@H](N)Cc2ccccc21 [Example 73, (3S)-3-amino-1-[(dimethylcarbamoyl)oxy]-3,4-dihydroquinolin-2(1H)-one, hydrochloride salt] | – | – | IC50: 1090 nM
N[C@H]1Cc2cc(Oc3ccc(Cl)c(F)c3)ccc2N(O)C1=O [Example 167, (3S)-3-amino-6-(4-chloro-3-fluorophenoxy)-1-hydroxy-3,4-dihydroquinolin-2(1H)-one, trifluoroacetate salt] | 105 | – | –

Compound | IC50 [1] [nM] | IC50 [2] [nM] | also measured
N[C@H]1Cc2cc(-c3cccc(Cl)c3)ccc2N(O)C1=O [Example 143, (3S)-3-amino-6-(3-chlorophenyl)-1-hydroxy-3,4-dihydroquinolin-2(1H)-one, trifluoroacetate salt] | 96 | – | –
N[C@H]1Cc2cccc(OC(F)(F)F)c2N(O)C1=O [Example 37] | – | 34.1 | –
N[C@H]1Cc2cc(Oc3cccc(C(F)(F)F)c3)cnc2N(O)C1=O [Example 79] | 29.5 | – | –
COc1ccc(-c2ccc3c(c2)N(O)C(=O)C(N)C3)cc1 (stereo not shown) [Example 56, 3-amino-1-hydroxy-7-(4-methoxyphenyl)-3,4-dihydroquinolin-2(1H)-one, trifluoroacetate salt] | – | 91.1 | –
N[C@H]1Cc2cc(-c3cccc(F)c3)ccc2N(O)C1=O [Example 139, (3S)-3-amino-6-(3-fluorophenyl)-1-hydroxy-3,4-dihydroquinolin-2(1H)-one, trifluoroacetate salt] | 66.1 | – | –
Cc1ccc2c(c1)CC(N)C(=O)N2O (stereo not shown) [Example 18] | – | 139 | –
NC1Cc2ccc(-c3cc(Cl)ccc3Cl)cc2N(O)C1=O (stereo not shown) [Example 43, 3-amino-7-(2,5-dichlorophenyl)-1-hydroxy-3,4-dihydroquinolin-2(1H)-one, trifluoroacetate salt] | – | 133 | –
N[C@H]1Cc2cc(-c3ccc(C(F)(F)F)cc3)cc(C(F)(F)F)c2N(O)C1=O [Example 28] | – | 1330 | –
COc1cccc2c1N(O)C(=O)C(N)C2 (stereo not shown) [Example 118] | 1270 | – | –
N[C@H]1Cc2c(ccc(Oc3ccccc3)c2F)N(O)C1=O [Example 111] | 45.2 | – | –
COc1ccc(Oc2ccc3c(c2)CC(N)C(=O)N3O)cc1 (stereo not shown) [Example 91] | 36.2 | – | –
COc1cccc(-c2ccc3c(c2)C[C@H](N)C(=O)N3O)c1 [Example 155, (3S)-3-amino-1-hydroxy-6-(3-methoxyphenyl)-3,4-dihydroquinolin-2(1H)-one, trifluoroacetate salt] | 136 | – | –
N[C@H]1Cc2cc(-c3ccc4c(c3)CCO4)ccc2N(O)C1=O [Example 138, (3S)-3-amino-6-(2,3-dihydro-1-benzofuran-5-yl)-1-hydroxy-3,4-dihydroquinolin-2(1H)-one, trifluoroacetate salt] | 156 | – | –
Cc1ccccc1-c1ccc2c(c1)C[C@H](N)C(=O)N2O [Example 135, (3S)-3-amino-1-hydroxy-6-(2-methylphenyl)-3,4-dihydroquinolin-2(1H)-one, trifluoroacetate salt] | 116 | – | –
NC1Cc2ccc(-c3ccccc3OC(F)(F)F)cc2N(O)C1=O (stereo not shown) [Example 41, 3-amino-1-hydroxy-7-[2-(trifluoromethoxy)phenyl]-3,4-dihydroquinolin-2(1H)-one, trifluoroacetate salt] | – | 257 | –
N[C@H]1Cc2cc(Oc3cc(F)cc(C(F)(F)F)c3)ccc2N(O)C1=O [Example 166, (3S)-3-amino-6-[3-fluoro-5-(trifluoromethyl)phenoxy]-1-hydroxy-3,4-dihydroquinolin-2(1H)-one, trifluoroacetate salt] | 128 | – | –
NC1Cc2cc(Oc3cccc(Cl)c3)ccc2N(O)C1=O (stereo not shown) [Example 101] | 39.7 | – | –
N[C@H]1Cc2cc(-c3ccccc3OC(F)(F)F)ccc2N(O)C1=O [Example 132, (3S)-3-amino-1-hydroxy-6-[2-(trifluoromethoxy)phenyl]-3,4-dihydroquinolin-2(1H)-one, trifluoroacetate salt] | 121 | – | –
N[C@H]1Cc2cccc(F)c2N(O)C1=O [Example 36] | – | 79.3 | –
N[C@H]1Cc2cccc(-c3cccnc3C(F)(F)F)c2N(O)C1=O [Example 90] | 355 | – | –
